Assay results reported in patent US20240174662A1, “SMALL MOLECULE INHIBITORS OF SALT INDUCIBLE KINASES” (Janssen Biotech, Inc., priority 2021, published 2024).

Target: SIK2 (Homo sapiens (Human), UniProt Q9H0K1)
Assay: SIK2 Enzymatic Assay Version 2 (High ATP)
Assay type: biochemical
Details: 3 mM ATP and 200 μM HDAC5tide final, ADP-Glo Max luminescence
Procedure: All steps were performed at room temperature. Compounds were pre-plated onto an assay plate using an Echo acoustic dispenser (Labcyte, […] or […]) at 80 nL per well. Enzyme prepared in assay buffer at 6 nM (2× final concentration) was added at 4 μL per well using the Multidrop Combi (Thermo Fisher-used for all additions in this assay) to the assay plate, spun for 1 min at 1000 rpm (Allegra 6KR Beckman Coulter centrifuge), and incubated with compound for 30 minutes. […] ADP-Glo Max Reagent (prepared and aliquoted as per manufacturer instructions) was then added at 8 μL per well, spun and incubated for 2 hours. ADP-Glo Max Detection (prepared and aliquoted as per manufacturer instructions) was added at 8 μL per well to the assay plate, which was spun and incubated for 1 hour. The plate was then read on the Pherastar (BMG Labtech) using a luminescence read. Gain was set between 2200-2500.

SIK2, sequence (Q9H0K1 whole entry, species assumed): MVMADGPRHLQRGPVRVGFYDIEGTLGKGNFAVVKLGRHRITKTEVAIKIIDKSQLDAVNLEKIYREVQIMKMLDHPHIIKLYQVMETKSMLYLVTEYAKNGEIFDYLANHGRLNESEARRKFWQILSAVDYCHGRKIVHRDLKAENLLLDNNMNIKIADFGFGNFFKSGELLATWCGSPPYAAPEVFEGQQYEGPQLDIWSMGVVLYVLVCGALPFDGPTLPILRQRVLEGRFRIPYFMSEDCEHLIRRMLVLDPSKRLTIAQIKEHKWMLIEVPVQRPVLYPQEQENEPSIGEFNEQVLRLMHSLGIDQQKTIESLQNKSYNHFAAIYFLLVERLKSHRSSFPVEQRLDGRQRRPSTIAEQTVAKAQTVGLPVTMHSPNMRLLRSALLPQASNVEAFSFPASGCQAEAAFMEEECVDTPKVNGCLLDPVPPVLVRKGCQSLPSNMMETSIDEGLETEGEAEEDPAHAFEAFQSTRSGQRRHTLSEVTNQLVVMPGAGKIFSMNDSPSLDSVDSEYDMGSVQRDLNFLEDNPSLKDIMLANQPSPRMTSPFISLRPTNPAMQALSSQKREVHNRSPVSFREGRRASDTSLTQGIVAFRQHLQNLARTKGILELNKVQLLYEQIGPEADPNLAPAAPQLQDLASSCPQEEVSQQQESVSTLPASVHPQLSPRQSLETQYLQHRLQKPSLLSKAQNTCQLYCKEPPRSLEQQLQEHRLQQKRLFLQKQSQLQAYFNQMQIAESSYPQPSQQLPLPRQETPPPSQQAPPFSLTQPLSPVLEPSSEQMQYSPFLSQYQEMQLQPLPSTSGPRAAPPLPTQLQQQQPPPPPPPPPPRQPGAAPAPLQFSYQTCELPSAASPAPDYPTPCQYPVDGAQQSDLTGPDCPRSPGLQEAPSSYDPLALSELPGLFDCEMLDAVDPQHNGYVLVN

IC50 [nM] | Compound
9.1 | C[C@H]1C[C@@H]1C(=O)Nc1cc2cc(-c3c(OC[C@H]4CCN4C)cnn3C)ccn2n1 [Example 15, (1S,2S)-2-methyl-N-[5-[2-methyl-4-[[(2R)-1-methylazetidin-2-yl]methoxy]pyrazol-3-yl]pyrazolo[1,5-a]pyridin-2-yl]cyclopropanecarboxamide]
47 | CN1CC2(CC2)C1COc1cnn(C)c1-c1ccn2nc(NC(=O)C3CC3)cc2c1 (racemic) [Example 51, (rac)-N-[5-[2-methyl-4-[(5-methyl-5-azaspiro[2.3]hexan-6-yl)methoxy]pyrazol-3-yl]pyrazolo[1,5-a]pyridin-2-yl]cyclopropanecarboxamide]
164 | CN1CC[C@H](Oc2cnn(C)c2-c2ccn3nc(Nc4cnc5c(ccn5C)c4)cc3c2)C1 [Example 460, 1-methyl-N-[5-[2-methyl-4-[(3S)-1-methylpyrrolidin-3-yl]oxy-pyrazol-3-yl]pyrazolo[1,5-a]pyridin-2-yl]pyrrolo[2,3-b]pyridin-5-amine]
12.2 | Cc1cncc(Nc2cc3cc(-c4c(CO[C@H]5CN(C)C[C@H]5C)cnn4C)ccn3n2)n1 (stereo in doubt) [Example 378, CIS—*R, *R-5-[4-[(1,4-dimethylpyrrolidin-3-yl)oxymethyl]-2-methyl-pyrazol-3-yl]-N-(6-methylpyrazin-2-yl)pyrazolo[1,5-a]pyridin-2-amine]
145 | CN1CC[C@H](Oc2cnn(C)c2-c2ccn3nc(Nc4cc(C(F)(F)F)ncn4)cc3c2)C1 [Example 459, 5-[2-methyl-4-[(3S)-1-methylpyrrolidin-3-yl]oxy-pyrazol-3-yl]-N-[6-(trifluoromethyl)pyrimidin-4-yl]pyrazolo[1,5-a]pyridin-2-amine]
178 | CN1CCC1(C)COc1cnn(C)c1-c1ccn2nc(NC(=O)C3CC3)cc2c1 (racemic) [Example 54, (rac)-N-[5-[4-[(1,2-dimethylazetidin-2-yl)methoxy]-2-methyl-pyrazol-3-yl]pyrazolo[1,5-a]pyridin-2-yl]cyclopropanecarboxamide]
4 | Cc1cc(Nc2cc3cc(-c4c(OCC(N)C56CC(C5)C6)cnn4C)ccn3n2)nc(C)n1 (centres unmarked) [Example 310, 5-[4-[2-amino-2-(3-bicyclo[1.1.1]pentanyl)ethoxy]-2-methyl-pyrazol-3-yl]-N-(2,6-dimethylpyrimidin-4-yl)pyrazolo[1,5-a]pyridin-2-amine]
161 | [2H]C([2H])([2H])N1CC[C@H](Oc2noc(C)c2-c2ccn3nc(NC(=O)C4CC4)cc3c2)C1 [Example 384, N-[5-[5-methyl-3-[(3S)-1-(trideuteriomethyl)pyrrolidin-3-yl]oxy-isoxazol-4-yl]pyrazolo[1,5-a]pyridin-2-yl]cyclopropanecarboxamide]
1.4 | CCN1CC[C@@H]1COc1cnn(C)c1-c1ccn2nc(NC(=O)[C@@H]3C[C@H]3C)cc2c1 [Example 66, (1R,2R)—N-[5-[4-[[(2R)-1-ethylazetidin-2-yl]methoxy]-2-methyl-pyrazol-3-yl]pyrazolo[1,5-a]pyridin-2-yl]-2-methyl-cyclopropanecarboxamide]
17.6 | Cn1ncc(OCC2(c3ccccc3)CNC2)c1-c1ccn2nc(NC(=O)C3CC3)cc2c1 [Example 44, N-[5-[2-methyl-4-[(3-phenylazetidin-3-yl)methoxy]pyrazol-3-yl]pyrazolo[1,5-a]pyridin-2-yl]cyclopropanecarboxamide]
12.3 | COC1CNC[C@@H]1Oc1noc(C)c1-c1ccn2nc(NC(=O)C3CC3)cc2c1 (single isomer, unassigned) [Example 202, N-(5-(3-(((3*S,4*R)-4-methoxypyrrolidin-3-yl)oxy)-5-methylisoxazol-4-yl)pyrazolo[1,5-a]pyridin-2-yl)cyclopropanecarboxamide]
2.1 | CCN1CC[C@@H]1COc1cnn(C(F)F)c1-c1ccn2nc(Nc3ccnc(C)n3)cc2c1 [Example 477, 5-[2-(difluoromethyl)-4-[[(2R)-1-ethylazetidin-2-yl]methoxy]pyrazol-3-yl]-N-(2-methylpyrimidin-4-yl)pyrazolo[1,5-a]pyridin-2-amine]
146 | Cc1onc(O[C@H]2CNC[C@H]2F)c1-c1ccn2nc(NC(=O)C3CC3)cc2c1 [Example 80, N-[5-[3-[(3S,4R)-4-fluoropyrrolidin-3-yl]oxy-5-methyl-isoxazol-4-yl]pyrazolo[1,5-a]pyridin-2-yl]cyclopropanecarboxamide]
58.3 | Cc1snc(OC[C@H]2CN(C)CCO2)c1-c1ccn2nc(NC(=O)C3CC3)cc2c1 [Example 332, N-[5-[5-methyl-3-[[(2R)-4-methylmorpholin-2-yl]methoxy]isothiazol-4-yl]pyrazolo[1,5-a]pyridin-2-yl]cyclopropanecarboxamide]
1.2 | Cc1cc(Nc2cc3cc(-c4c(OC[C@H]5CCN5C)cnn4C(F)F)ccn3n2)nc(C)n1 [Example 140, 5-[2-(difluoromethyl)-4-[[(2R)-1-methylazetidin-2-yl]methoxy]pyrazol-3-yl]-N-(2,6-dimethylpyrimidin-4-yl)pyrazolo[1,5-a]pyridin-2-amine]
98.7 | Cn1ncc(O[C@@H]2CNC[C@H]2O)c1-c1ccn2nc(NC(=O)C3CC3)cc2c1 (single isomer, unassigned) [Example 414, (3*R,4*R)—N-[5-[4-(4-hydroxypyrrolidin-3-yl)oxy-2-methyl-pyrazol-3-yl]pyrazolo[1,5-a]pyridin-2-yl]cyclopropanecarboxamide]
18.5 | Cc1cc(Nc2cc3cc(-c4c(OC[C@H]5CCCN5C)cnn4C)ccn3n2)ncn1 [Example 285, 5-[2-methyl-4-[[(2R)-1-methylpyrrolidin-2-yl]methoxy]pyrazol-3-yl]-N-(6-methylpyrimidin-4-yl)pyrazolo[1,5-a]pyridin-2-amine]
113 | CN1CC[C@@H]1COc1cnn(C)c1-c1ccn2nc(NC(=O)[C@@H]3C[C@@H]3c3ccccc3)cc2c1 (mixture of isomers) [Example 473, cis-N-[5-[2-methyl-4-[(1-methylazetidin-2-yl)methoxy]pyrazol-3-yl]pyrazolo[1,5-a]pyridin-2-yl]-2-phenyl-cyclopropanecarboxamide]
28.1 | C[C@@H]1CN(C)C[C@@H]1OCc1cnn(C)c1-c1ccn2nc(NC(=O)C3CC3)cc2c1 (single isomer, unassigned) [Example 197, (3*R, 4*R)—N-[5-[4-[(1,4-dimethylpyrrolidin-3-yl)oxymethyl]-2-methyl-pyrazol-3-yl]pyrazolo[1,5-a]pyridin-2-yl]cyclopropanecarboxamide]
40.8 | CC(C)c1cc(Nc2cc3cc(-c4c(O[C@H]5CCN(C)C5)cnn4C)ccn3n2)ncn1 [Example 271, N-(6-isopropylpyrimidin-4-yl)-5-[2-methyl-4-[(3S)-1-methylpyrrolidin-3-yl]oxy-pyrazol-3-yl]pyrazolo[1,5-a]pyridin-2-amine]
35.2 | Cc1snc(O[C@H]2CCNC2)c1-c1ccn2nc(NC(=O)C3CC3)cc2c1 [Example 330, N-[5-[5-methyl-3-[(3S)-pyrrolidin-3-yl]oxy-isothiazol-4-yl]pyrazolo[1,5-a]pyridin-2-yl]cyclopropanecarboxamide]
99.9 | Cn1ncc(OC[C@H]2CCN2Cc2ccccc2)c1-c1ccn2nc(NC(=O)C3CC3)cc2c1 [Example 429, N-[5-[4-[[(2R)-1-benzylazetidin-2-yl]methoxy]-2-methyl-pyrazol-3-yl]pyrazolo[1,5-a]pyridin-2-yl]cyclopropanecarboxamide]
1380 | CN1CCCC[C@H]1COc1cnn(C)c1-c1ccn2nc(NC(=O)C3CC3)cc2c1 [Example 505]
1.3 | Cc1cc(Nc2cc3cc(-c4c(OC[C@H]5CCN5C)cnn4C(F)F)ccn3n2)nn(C)c1=O [Example 33, 6-[[5-[2-(difluoromethyl)-4-[[(2R)-1-methylazetidin-2-yl]methoxy]pyrazol-3-yl]pyrazolo[1,5-a]pyridin-2-yl]amino]-2,4-dimethyl-pyridazin-3-one]
< 0.847 | Cc1cn2nc(Nc3cc4cc(-c5c(OC[C@H]6CCN6C)cnn5C)ccn4n3)ccc2n1 [Example 148, 2-methyl-N-[5-[2-methyl-4-[[(2R)-1-methylazetidin-2-yl]methoxy]pyrazol-3-yl]pyrazolo[1,5-a]pyridin-2-yl]imidazo[1,2-b]pyridazin-6-amine]
34.9 | C[C@@H]1CN(C)[C@H]1COc1cnn(C)c1-c1ccn2nc(NC(=O)C3CC3)cc2c1 [Example 24, N-[5-[4-[[(2R,3R)-1,3-Dimethylazetidin-2-yl]methoxy]-2-methyl-pyrazol-3-yl]pyrazolo[1,5-a]pyridin-2-yl]cyclopropanecarboxamide]
25.6 | Cc1cnc(Nc2cc3cc(-c4c(OC[C@H]5CCN5C)noc4C)ccn3n2)cn1 [Example 323, 5-[5-methyl-3-[[(2R)-1-methylazetidin-2-yl]methoxy]isoxazol-4-yl]-N-(5-methylpyrazin-2-yl)pyrazolo[1,5-a]pyridin-2-amine]
3.3 | COCCNC(=O)c1ccc(Nc2cc3cc(-c4c(OC[C@H]5CCN5C)cnn4C)ccn3n2)nc1 [Example 107, N-(2-methoxyethyl)-6-[[5-[2-methyl-4-[[(2R)-1-methylazetidin-2-yl]methoxy]pyrazol-3-yl]pyrazolo[1,5-a]pyridin-2-yl]amino]pyridine-3-carboxamide]

Compound | IC50 [nM]
Cc1cc(Nc2cc3cc(-c4c(OC[C@H]5CCN5CCF)cnn4C)ccn3n2)nnc1C [Example 276, N-(5,6-dimethylpyridazin-3-yl)-5-[4-[[(2R)-1-(2-fluoroethyl)azetidin-2-yl]methoxy]-2-methyl-pyrazol-3-yl]pyrazolo[1,5-a]pyridin-2-amine] | 0.9
